# Patent US11752125B2, “Anti-neuroinflammatory and protective compounds in Achillea fragrantissima” (THE STATE OF ISRAEL MINISTRY OF AGRICULTURE & RURAL …, priority 2013, dated 2023)
# Legend:
# Type in all cases: cell-based, rat
# [1] = system: IL-1β; assay: IL-1β secretion from LPS-stimulated microglial cells (ELISA); conditions: LPS 100 ng/mL, 24 h
# Method: (§1) Cultures of primary rat microglial cells were prepared from cerebral cortices of 1-2 day-old neonatal Wistar rats as described. Microglial cells were seeded at 24-well plastic plates at 1×10^5/well in RPMI-1640 containing 2% FBS, 2 mM glutamine, 100 U/mL penicillin, 100 µg/mL streptomycin, 1 mM sodium pyruvate, and 50 μM β-mercaptoethanol. Cells were cultured for 36 h before treatments. The research was conducted in accordance with the NIH guide for the care and use of laboratory animals, and was approved by the Institutional Animal Care and Use Committee of The Volcani Center, Agricultural Research Organization (IL-135/07, approval date Apr. 11, 2007). All efforts were made to minimize animal suffering, and to reduce the number of animals used.
# For IL-1β measurements, 3.5×10^4 cells/well were plated on a 24-well tissue culture plate. After 24 h of incubation in DMEM containing 10% FBS, cells were stimulated with LPS (100 ng/mL) and treated with different concentrations of achillolide A. Conditioned media were collected twenty four hours later, and were tested with a rat IL1β ELISA kit (Novus Biologicals; CO, USA), according to the manufacturer's instructions.
# 2. Plate microglial cells (3.5×10^4 cells/well) on a 24-well tissue culture plate, in DMEM containing 10% FBS, 2 mM glutamine, 100 U/ml penicillin and 100 micrograms/mL streptomycin;
# Microglial cells were treated with different concentrations of TTF, followed by stimulation with LPS (100 ng/mL). After 24 h, conditioned media were collected and tested for cytokine levels by ELISA. Cell viability was determined using the crystal violet assay (FIG. 9C). Values represent the means±SEM (n=4 for each treatment).
# Microglial cells were treated with 20 μg/mL of achillolide A, followed by stimulation with LPS (4.5 ng/mL). After 5 h the levels of the indicated transcripts were measured by quantitative real-time PCR and the relative quantity (RQ) of the different transcripts were determined. […] The results are expressed as percentages relative to LPS-stimulated cells. […]
# [2] = system: NO; assay: NO (nitrite) production by LPS-activated microglial cells (Griess); conditions: LPS 4.5 ng/mL, 20 h
# Method: as §1
# For NO measurements, 1×10^5 microglial cells/well were plated in a 24-well tissue culture plate. Cells were stimulated with LPS (4.5 ng/mL) and concomitantly treated with achillolide A or a reference drug. NO levels in the culture medium were estimated with Griess reagent.
# 3. Activate microglial cells with lipopolysaccharide (LPS, 4.5 nanograms/mL);
# In FIG. 21 A, microglial cells were treated with different concentrations of achillolide A, dexamethasone or memantine (as reference drugs) and were concomitantly activated by LPS (4.5 ng/mL) for 20 h. Cell conditioned supernatants were collected, and the levels of NO were measured using Griess reaction. Cytotoxicity was measured using the LDH method (FIG. 21B). Values represent the mean±SEM (n=12 for each treatment). ** p<0.01; ***p<0.001 relative to cells that were treated to LPS only.
# [3] = system: glutamate; assay: Glutamate secretion from LPS-activated microglial cells; conditions: LPS 100 ng/mL, 20 h
# Method: For glutamate measurements, 3.5×10^4 cells/well were plated on a 24-well tissue culture plate. After 24 h of incubation in DMEM containing 10% FBS, cells were stimulated with LPS (100 ng/mL) and treated with different concentrations of achillolide A. Conditioned media were collected twenty hours later, and were tested for glutamate levels using a colorimetric enzymatic assay kit (glutamate assay kit, BioVision, CA, USA) according to the manufacturer's instructions. 7. Measure the levels of glutamate using a colorimetric enzymatic assay kit (glutamate assay kit, BioVision, CA, USA) according to the manufacturer's instructions. Microglial cells were treated with the indicated concentrations of achillolide A, followed by stimulation with LPS (100 ng/mL). After 20 h, conditioned media were collected and tested for glutamate levels by a commercial kit. Values represent the means±SEM (n=4 for each treatment). ** p<0.01; *** p<0.001, compared to LPS-stimulated cells.
# [4] = system: microglial cells; assay: Cellular antioxidant activity (ABAP peroxyl radicals) in microglial cells; conditions: ABAP 0.6 mM, dexamethasone at nanomolar concentrations
# Method: Intracellular ROS production was detected using the non-fluorescent cell permeating compound, 2′7′-dichlorofluorescein diacetate (DCF-DA). DCF-DA is hydrolyzed by intracellular esterases and then oxidized by ROS to a fluorescent compound 2′-7′-DCF. Peroxyl radicals are generated by thermolysis of 2,2′-Azobis(amidinopropane) (ABAP) at physiological temperature. ABAP decomposes at approximately 1.36×10^−6s^−1 at 37° C., producing at most 1×10^12 radicals/mL/s. Microglial cells (130,000 cells/well) were plated in DMEM containing 2% FBS, 8.4 mM HEPES, 2 mM glutamine, 100 U/mL penicillin and 100 μg/mL streptomycin, onto 24 wells plates. In order to measure the ability of achillolide A to enter the cells and prevent the formation of DCF by ABAP-generated peroxyl radicals, cells were incubated for 1 h with achillolide A. Then cells were preloaded with DCF-DA for 30 min, washed twice with PBS, and ABAP (0.6 mM final concentration) was then added. The fluorescence, which indicates ROS levels, was measured in a plate reader with excitation at 485 nm and emission at 520 nm.
# Cells were incubated for 1 h with different concentrations of achillolide A. Then, the cells were pre-loaded with DCF-DA for 30 min and washed. ABAP (0.6 mM) was added to the culture and ROS levels were measured at the indicated time points. […]
smiles,measurement,setting,value
"C[C@@H]1C[C@H]2[C@@H]3CCC4=CC(=O)C=C[C@]4(C)[C@@]3(F)[C@@H](O)C[C@]2(C)[C@@]1(O)C(=O)CO [dexamethasone, reference compound]",inhibition of IL-1β secretion,[1],85%
same,inhibition of NO produced by the activated cells,[2],90%
same,inhibition of the LPS-induced levels of secreted glutamate,[3],90%
same,inhibition of the ABAP-induced increase in ROS fluorescence,[4],75%
